Reference: US8507545B2, “Cytotoxic T cell activator comprising EP4 agonist” (National University Corporation, Hamamatsu University …, priority 2007, dated 2013)

Tested on: B16 melanoma cells
Assay: Life-prolonging effect in melanoma-inoculated mice
Format: in vivo, B6 mice
Details: 10 animals in group
Experimental: 2×10^5 B16 melanoma cells were transplanted to B6 mice in the same manner as Example 3. On day 5 after transplantation, the right auricle of each B6 mouse was treated with each test substance (TRP-2 (10 μg for one side of each auricle), Compound A-(1) (20 μL of 100 μM solution for one side of each auricle) by the same method as Example 3. Ten days later, the left auricle was treated in the same manner, and the mice in each experimental group were examined for mortality. Three experimental groups were established: (1) a group undergoing TS alone, (2) a group undergoing TS followed by application of Compound A-(1), and (3) a group undergoing TS followed by application of TRP-2 and Compound A-(1) (10 animals in each group).

COCc1cccc(C[C@H](O)/C=C/[C@H]2[C@H](O)CC(=O)[C@@H]2SCCCSCC(=O)O)c1 [Compound A-(1), 11α,15α,-dihydroxy-9-oxo-16-(3-methoxymethylphenyl)-17,18,19,20-tetranol-3,7-dithiaprost-13E-enoic acid]
number of surviving individuals (day 16 after B16 melanoma cells inoculation, TS followed by Compound A-(1)): 10 animals | number of surviving individuals (day 16 after B16 melanoma cells inoculation, TS followed by TRP-2 and Compound A-(1)): 10 animals | number of surviving individuals (day 21 after B16 melanoma cells inoculation, TS followed by Compound A-(1)): 10 animals | number of surviving individuals (day 21 after B16 melanoma cells inoculation, TS followed by TRP-2 and Compound A-(1)): 10 animals | number of surviving individuals (day 24 after B16 melanoma cells inoculation, TS followed by Compound A-(1)): 10 animals | number of surviving individuals (day 24 after B16 melanoma cells inoculation, TS followed by TRP-2 and Compound A-(1)): 10 animals | number of surviving individuals (day 27 after B16 melanoma cells inoculation, TS followed by Compound A-(1)): 7 animals | number of surviving individuals (day 27 after B16 melanoma cells inoculation, TS followed by TRP-2 and Compound A-(1)): 10 animals | number of surviving individuals (day 29 after B16 melanoma cells inoculation, TS followed by Compound A-(1)): 7 animals | number of surviving individuals (day 29 after B16 melanoma cells inoculation, TS followed by TRP-2 and Compound A-(1)): 10 animals | number of surviving individuals (day 31 after B16 melanoma cells inoculation, TS followed by Compound A-(1)): 7 animals | number of surviving individuals (day 31 after B16 melanoma cells inoculation, TS followed by TRP-2 and Compound A-(1)): 10 animals | number of surviving individuals (day 33 after B16 melanoma cells inoculation, TS followed by Compound A-(1)): 7 animals | number of surviving individuals (day 33 after B16 melanoma cells inoculation, TS followed by TRP-2 and Compound A-(1)): 10 animals | number of surviving individuals (day 35 after B16 melanoma cells inoculation, TS followed by Compound A-(1)): 2 animals | number of surviving individuals (day 35 after B16 melanoma cells inoculation, TS followed by TRP-2 and Compound A-(1)): 10 animals | number of surviving individuals (day 37 after B16 melanoma cells inoculation, TS followed by Compound A-(1)): 2 animals | number of surviving individuals (day 37 after B16 melanoma cells inoculation, TS followed by TRP-2 and Compound A-(1)): 10 animals | number of surviving individuals (day 38 after B16 melanoma cells inoculation, TS followed by Compound A-(1)): 2 animals | number of surviving individuals (day 38 after B16 melanoma cells inoculation, TS followed by TRP-2 and Compound A-(1)): 10 animals | number of surviving individuals (day 40 after B16 melanoma cells inoculation, TS followed by Compound A-(1)): 0 animals | number of surviving individuals (day 40 after B16 melanoma cells inoculation, TS followed by TRP-2 and Compound A-(1)): 8 animals | number of surviving individuals (day 42 after B16 melanoma cells inoculation, TS followed by Compound A-(1)): 0 animals | number of surviving individuals (day 42 after B16 melanoma cells inoculation, TS followed by TRP-2 and Compound A-(1)): 8 animals | number of surviving individuals (day 44 after B16 melanoma cells inoculation, TS followed by Compound A-(1)): 0 animals | number of surviving individuals (day 44 after B16 melanoma cells inoculation, TS followed by TRP-2 and Compound A-(1)): 5 animals | number of surviving individuals (day 46 after B16 melanoma cells inoculation, TS followed by Compound A-(1)): 0 animals | number of surviving individuals (day 46 after B16 melanoma cells inoculation, TS followed by TRP-2 and Compound A-(1)): 4 animals | number of surviving individuals (day 48 after B16 melanoma cells inoculation, TS followed by Compound A-(1)): 0 animals | number of surviving individuals (day 48 after B16 melanoma cells inoculation, TS followed by TRP-2 and Compound A-(1)): 2 animals | number of surviving individuals (day 50 after B16 melanoma cells inoculation, TS followed by Compound A-(1)): 0 animals | number of surviving individuals (day 50 after B16 melanoma cells inoculation, TS followed by TRP-2 and Compound A-(1)): 2 animals | number of surviving individuals (day 52 after B16 melanoma cells inoculation, TS followed by Compound A-(1)): 0 animals | number of surviving individuals (day 52 after B16 melanoma cells inoculation, TS followed by TRP-2 and Compound A-(1)): 2 animals | number of surviving individuals (day 55 after B16 melanoma cells inoculation, TS followed by Compound A-(1)): 0 animals | number of surviving individuals (day 55 after B16 melanoma cells inoculation, TS followed by TRP-2 and Compound A-(1)): 2 animals | number of surviving individuals (day 57 after B16 melanoma cells inoculation, TS followed by Compound A-(1)): 0 animals | number of surviving individuals (day 57 after B16 melanoma cells inoculation, TS followed by TRP-2 and Compound A-(1)): 1 animals
